Measured values taken from the supplement of paper PMC10307832.

What was measured:
Experiment in all cases: relative viability (nuclei count vs DMSO), 5 days (fraction); higher = more cells survive
EPLC-272H = tested on: EPLC-272H
Summary of the method: (§1)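 Dosing by pin tool came one day after lung cancer cell lines were seeded in 1536-well plates, using either one drug or a fixed anchor-drug dose plus five library-drug doses (not always all listed) in √10 steps. After 5 days, nuclei were counted on 4× images. Relative viability is treated-well nuclei count divided by vehicle-well nuclei count, and values are medians of duplicate plates.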

H3255 = tested on: H3255
Summary of the method: as §1

HARA = tested on: HARA
Summary of the method: as §1

LC-2-ad = tested on: LC-2-ad
Summary of the method: as §1

LOU-NH91 = tested on: LOU-NH91
Summary of the method: as §1

NCI-H1651 = tested on: NCI-H1651
Summary of the method: as §1

NCI-H1975 = tested on: NCI-H1975
Summary of the method: as §1

NCI-H2009 = tested on: NCI-H2009
Summary of the method: as §1

NCI-H2023 = tested on: NCI-H2023
Summary of the method: as §1

NCI-H2085 = tested on: NCI-H2085
Summary of the method: as §1

NCI-H2087 = tested on: NCI-H2087
Summary of the method: as §1

NCI-H2228 = tested on: NCI-H2228
Summary of the method: as §1

NCI-H23 = tested on: NCI-H23
Summary of the method: as §1

NCI-H441 = tested on: NCI-H441
Summary of the method: as §1

NCI-H650 = tested on: NCI-H650
Summary of the method: as §1

NCI-H727 = tested on: NCI-H727
Summary of the method: as §1

NCI-H838 = tested on: NCI-H838
Summary of the method: as §1

PC-3 [JPC-3] = tested on: PC-3 [JPC-3]
Summary of the method: as §1

SW 1573 = tested on: SW 1573
Summary of the method: as §1

UMC-11 = tested on: UMC-11
Summary of the method: as §1

Compound: Cc1csc(=NC2CCCCC2)n1/N=C/c1ccc(O)c(O)c1O [MIM1] + C[C@]1(O)C[C@@H](c2nc(-c3ccc4ccc(-c5ccccc5)nc4c3)c3c(N)nccn32)C1 [Linsitinib] (partner 1 µM)
- relative viability (EPLC-272H; first compound 0.2 µM): 1.06
- relative viability (EPLC-272H; first compound 0.6325 µM): 1.15
- relative viability (EPLC-272H; first compound 2 µM): 1.17
- relative viability (EPLC-272H; first compound 6.325 µM): 1.26
- relative viability (EPLC-272H; first compound 20 µM): 0.988
- relative viability (H3255; first compound 0.2 µM): 0.901
- relative viability (H3255; first compound 0.6325 µM): 0.918
- relative viability (H3255; first compound 2 µM): 0.883
- relative viability (H3255; first compound 6.325 µM): 0.637
- relative viability (H3255; first compound 20 µM): 0.406
- relative viability (HARA; first compound 0.2 µM): 0.9
- relative viability (HARA; first compound 0.6325 µM): 0.926
- relative viability (HARA; first compound 2 µM): 0.909
- relative viability (HARA; first compound 6.325 µM): 0.92
- relative viability (HARA; first compound 20 µM): 0.187
- relative viability (LC-2-ad; first compound 0.2 µM): 0.794
- relative viability (LC-2-ad; first compound 0.6325 µM): 0.744
- relative viability (LC-2-ad; first compound 2 µM): 0.856
- relative viability (LC-2-ad; first compound 6.325 µM): 0.547
- relative viability (LC-2-ad; first compound 20 µM): 0.132
- relative viability (LOU-NH91; first compound 0.2 µM): 0.882
- relative viability (LOU-NH91; first compound 0.6325 µM): 0.978
- relative viability (LOU-NH91; first compound 2 µM): 0.728
- relative viability (LOU-NH91; first compound 6.325 µM): 0.851
- relative viability (LOU-NH91; first compound 20 µM): 0.592
- relative viability (NCI-H1651; first compound 0.2 µM): 0.925
- relative viability (NCI-H1651; first compound 0.6325 µM): 0.993
- relative viability (NCI-H1651; first compound 2 µM): 1
- relative viability (NCI-H1651; first compound 6.325 µM): 0.825
- relative viability (NCI-H1651; first compound 20 µM): 0.797
- relative viability (NCI-H1975; first compound 0.2 µM): 0.869
- relative viability (NCI-H1975; first compound 0.6325 µM): 1.12
- relative viability (NCI-H1975; first compound 2 µM): 0.796
- relative viability (NCI-H1975; first compound 6.325 µM): 0.525
- relative viability (NCI-H1975; first compound 20 µM): 0.546
- relative viability (NCI-H2009; first compound 0.2 µM): 1.25
- relative viability (NCI-H2009; first compound 0.6325 µM): 1.18
- relative viability (NCI-H2009; first compound 2 µM): 1.18
- relative viability (NCI-H2009; first compound 6.325 µM): 1.06
- relative viability (NCI-H2009; first compound 20 µM): 1.05
- relative viability (NCI-H2023; first compound 0.2 µM): 0.625
- relative viability (NCI-H2023; first compound 0.6325 µM): 0.739
- relative viability (NCI-H2023; first compound 2 µM): 0.615
- relative viability (NCI-H2023; first compound 6.325 µM): 0.482
- relative viability (NCI-H2023; first compound 20 µM): 0.443
- relative viability (NCI-H2085; first compound 0.2 µM): 1.04
- relative viability (NCI-H2085; first compound 0.6325 µM): 0.912
- relative viability (NCI-H2085; first compound 2 µM): 0.971
- relative viability (NCI-H2085; first compound 6.325 µM): 0.815
- relative viability (NCI-H2085; first compound 20 µM): 0.934
- relative viability (NCI-H2087; first compound 0.2 µM): 0.935
- relative viability (NCI-H2087; first compound 0.6325 µM): 0.833
- relative viability (NCI-H2087; first compound 2 µM): 0.989
- relative viability (NCI-H2087; first compound 6.325 µM): 0.693
- relative viability (NCI-H2087; first compound 20 µM): 0.428
- relative viability (NCI-H2228; first compound 0.2 µM): 0.752
- relative viability (NCI-H2228; first compound 0.6325 µM): 0.638
- relative viability (NCI-H2228; first compound 2 µM): 0.877
- relative viability (NCI-H2228; first compound 6.325 µM): 0.217
- relative viability (NCI-H2228; first compound 20 µM): 0.208
- relative viability (NCI-H23; first compound 0.2 µM): 0.553
- relative viability (NCI-H23; first compound 2 µM): 0.488
- relative viability (NCI-H23; first compound 6.325 µM): 0.58
- relative viability (NCI-H23; first compound 20 µM): 0.215
- relative viability (NCI-H441; first compound 0.2 µM): 0.612
- relative viability (NCI-H441; first compound 0.6325 µM): 0.528
- relative viability (NCI-H441; first compound 2 µM): 0.543
- relative viability (NCI-H441; first compound 6.325 µM): 0.709
- relative viability (NCI-H441; first compound 20 µM): 0.145
- relative viability (NCI-H650; first compound 0.2 µM): 0.964
- relative viability (NCI-H650; first compound 0.6325 µM): 0.843
- relative viability (NCI-H650; first compound 2 µM): 0.938
- relative viability (NCI-H650; first compound 6.325 µM): 0.824
- relative viability (NCI-H650; first compound 20 µM): 0.234
- relative viability (NCI-H727; first compound 0.2 µM): 0.311
- relative viability (NCI-H727; first compound 0.6325 µM): 0.284
- relative viability (NCI-H727; first compound 2 µM): 0.276
- relative viability (NCI-H727; first compound 6.325 µM): 0.278
- relative viability (NCI-H727; first compound 20 µM): 0.266
- relative viability (NCI-H838; first compound 0.2 µM): 0.887
- relative viability (NCI-H838; first compound 0.6325 µM): 1.1
- relative viability (NCI-H838; first compound 2 µM): 0.851
- relative viability (NCI-H838; first compound 6.325 µM): 0.765
- relative viability (NCI-H838; first compound 20 µM): 0.464
- relative viability (PC-3 [JPC-3]; first compound 0.2 µM): 0.946
- relative viability (PC-3 [JPC-3]; first compound 0.6325 µM): 0.952
- relative viability (PC-3 [JPC-3]; first compound 2 µM): 1
- relative viability (PC-3 [JPC-3]; first compound 6.325 µM): 0.805
- relative viability (PC-3 [JPC-3]; first compound 20 µM): 0.845
- relative viability (SW 1573; first compound 0.2 µM): 0.872
- relative viability (SW 1573; first compound 0.6325 µM): 0.792
- relative viability (SW 1573; first compound 2 µM): 0.678
- relative viability (SW 1573; first compound 6.325 µM): 0.767
- relative viability (SW 1573; first compound 20 µM): 0.607
- relative viability (UMC-11; first compound 0.2 µM): 1.02
- relative viability (UMC-11; first compound 0.6325 µM): 1.01
- relative viability (UMC-11; first compound 2 µM): 1.02
- relative viability (UMC-11; first compound 6.325 µM): 0.66
- relative viability (UMC-11; first compound 20 µM): 0.233
